The source of these data is US10508104B2, “6-hydroxy-5-(phenyl/heteroarylsulfonyl)pyrimidin-4(1H)-one as APJ agonists” (Bristol-Myers Squibb Company, priority 2016, dated 2019).

pEC50: −log10 of the molar value.

Sequence of human APJ receptor (P35414 whole entry): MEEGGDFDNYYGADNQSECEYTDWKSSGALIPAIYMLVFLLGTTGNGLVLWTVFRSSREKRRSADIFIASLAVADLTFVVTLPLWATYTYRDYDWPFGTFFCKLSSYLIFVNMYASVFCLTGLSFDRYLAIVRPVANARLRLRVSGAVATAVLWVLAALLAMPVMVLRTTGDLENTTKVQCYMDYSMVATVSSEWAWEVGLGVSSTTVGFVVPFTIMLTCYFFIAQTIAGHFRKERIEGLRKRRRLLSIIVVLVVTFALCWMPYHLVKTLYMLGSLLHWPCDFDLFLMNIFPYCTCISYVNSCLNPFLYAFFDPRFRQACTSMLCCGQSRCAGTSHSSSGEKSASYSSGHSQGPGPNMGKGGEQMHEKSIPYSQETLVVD

The first experiment has as its target human APJ receptor (Homo sapiens (Human), UniProt P35414). Briefly: Intracellular cAMP accumulation assay (APJ hcAMP, HTRF). Type of experiment: cell-based. Particulars: HEK293 cells stably expressing human APJ receptor; inhibition of forskolin-mediated cAMP production; read-out: Human APJ cAMP EC50 Potency range. In a few lines: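 HEK293 cells stably expressing human APJ, 5,000 per well, incubated 30 min at rt with compound, […] and 2 μM forskolin. cAMP measured by HTRF against a cAMP standard curve as inhibition of forskolin-driven production. EC50 from variable-slope sigmoidal fit.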
Take `CNC(=O)c1ccccc1-c1ccc(S(=O)(=O)c2c(O)n([C@H](c3cccc(C#N)c3)C3CC3)c(COC(C)C)nc2=O)cc1` [Example 420, 4′-({1-[(S)-(3-cyanophenyl)(cyclopropyl)methyl]-6-hydroxy-4-oxo-2-[(propan-2-yloxy)methyl]-1,4-dihydropyrinudin-5-yl}sulfonyl)-N-methyl-[1,1′-biphenyl]-2-carboxamide]: the pEC50 is 8.00 to 11.00. Still for that read-out and setting: the result for `CCCCc1nc(=O)c(S(=O)(=O)c2ccc(-c3ccc(F)nc3C)cc2)c(O)n1[C@H]1CCc2c(C#N)cccc21` [Example 540, (1S)-1-{2-butyl-5-[4-(6-fluoro-2-methylpyridin-3-yl)benzenesulfonyl]-6-hydroxy-4-oxo-1,4-dihydropyrimidin-1-yl}-2,3-dihydro-1H-indene-4-carbonitrile] reads 8.00 to 11.00. Still for that read-out and setting: the result for `CCCCc1nc(=O)c(S(=O)(=O)c2ccc(-c3ccccc3F)cc2)c(O)n1[C@@H](CC)c1cccc(C#N)c1` [Example 511, 3-[(1S)-1-[2-butyl-5-({2′-fluoro-[1,1′-biphenyl]-4-yl}sulfonyl)-6-hydroxy-4-oxo-1,4-dihydropyrimidin-1-yl]propyl]benzonitrile] reads 8.00 to 11.00; that for `COC[C@@H](c1cc(F)cc(F)c1)n1c(COC(C)C)nc(=O)c(S(=O)(=O)c2ccc(-c3cncc(C#N)c3)cc2)c1O` [Example 391, 5-[4-({1-[(1R)-1-(3,5-difluorophenyl)-2-methoxyethyl]-6-hydroxy-4-oxo-2-[(propan-2-yloxy)methyl]-1,4-dihydropyrimidin-5-yl}sulfonyl)phenyl] pyridine-3-carbonitrile], 8.00 to 11.00. In the case of `CCCCc1nc(=O)c(S(=O)(=O)c2ccc(-c3cnc(OC)nc3OC)cc2)c(O)n1[C@@H](CC)c1cccc(C#N)c1` [Example 508, 3-[(1S)-1-{2-butyl-5-[4-(2,4-dimethoxypyrimidin-5-yl)benzenesulfonyl]-6-hydroxy-4-oxo-1,4-dihydropyrimidin-1-yl}propyl]benzonitrile], the pEC50 was 8.00 to 11.00.

On to `CCCCc1nc(=O)c(S(=O)(=O)c2ccc(-c3ccc(F)nc3C)cc2)c(O)n1[C@H](c1cccc(C#N)c1)C(C)C` [Example 452, 3-[(1S)-1-{2-butyl-5-[4-(6-fluoro-2-methylpyridin-3-yl)benzenesulfonyl]-6-hydroxy-4-oxo-1,4-dihydropyrimidin-1-yl}-2-methylpropyl]benzonitriIe], for which the pEC50 is 8.00 to 11.00. On the same count and under the same terms, the result for `Cc1c(-c2ccc(S(=O)(=O)c3c(O)n([C@H](c4cccc(C#N)c4)C4CC4)c(CC4CC4)nc3=O)cc2)ccnc1F` [Example 498, 3-[(S)-cyclopropyl[2-(cyclopropylmethyl)-5-[4-(2-fluoro-3-methylpyridin-4-yl)benzenesulfonyl]-6-hydroxy-4-oxo-1,4-dihydropyrimidin-1-yl]methyl]benzonitrile] reads 8.00 to 11.00.

With `CCCCc1nc(=O)c(S(=O)(=O)c2ccc(-c3ccccc3C(=O)NC)cc2)c(O)n1[C@@H](CC)c1cccc(C#N)c1` [Example 507, 4′-({2-butyl-1-[(1S)-1-(3-cyanophenyl)propy1]-6-hydroxy-4-oxo-1,4-dihydropyrimidin-5-yl}sulfonyl)-N-methyl-[1,1′-biphenyl]-2-carboxamide], the pEC50 was 8.00 to 11.00. Take `CCCCc1nc(=O)c(S(=O)(=O)c2ccc(-c3cccnc3C)cc2)c(O)n1[C@@H](CC)c1ccc(C#N)c(F)c1` [Example 515, 4-[(1S)-1-{2-butyl-6-hydroxy-5-[4-(2-methylpyridin-3-yl)benzenesulfonyl]-4-oxo-1,4-dihydropyrimidin-1-yl}propyl]-2-fluorobenzonitrile]: the pEC50 is 8.00 to 11.00.

The experiment is the same for the next values; noted with them: human APJ, cAMP accumulation; read-out: Human APJ cAMP EC50 Potency range.
As for `CCOCc1nc(=O)c(S(=O)(=O)c2ccc(C3CC3)cc2)c(O)n1[C@H]1CCc2ccccc21` [Example 303, 5-(4-cyclopropylbenzene-sulfonyl)-1-[(1S)-2,3-dihydro-1H-inden-1-yl]-2-(ethoxymethyl)-6-hydroxy-1,4-dihydropyrimidin-4-one], the pEC50 is 8.00 to 11.00. Same read-out and setting: the result for `CCOCc1nc(=O)c(S(=O)(=O)c2ccc(-c3ccnc(F)c3C)cc2)c(O)n1[C@@H](CC)c1ccccc1` [Example 307, 2-(ethoxymethyl)-5-[4-(2-fluoro-3-methylpyridin-4-yl)benzenesulfonyl]-6-hydroxy-1-[(1S)-1-phenylpropyl]-1,4-dihydropyrimidin-4-one] reads 8.00 to 11.00; that for `CCCCc1nc(=O)c(S(=O)(=O)c2ccc(-c3cnc(C)nc3)cc2)c(O)n1[C@@H](CC)c1ccccc1` [Example 292, 2-butyl-6-hydroxy-5-[4-(2-methylpyrimidin-5-yl)benzenesulfonyl]-1-[(1S)-1-phenylpropyl]-1,4-dihydropyrimidin-4-one], 7.00 to 8.00; that for `CCOCc1nc(=O)c(S(=O)(=O)c2ccc(-c3ccc(F)nc3)c(F)c2)c(O)n1[C@@H](COC)c1ccccc1` [Example 341, 2-(ethoxymethyl)-5-[3-fluoro-4-(6-fluoropyridin-3-yl)benzenesulfonyl]-6-hydroxy-1-[(1R)-2-methoxy-1-phenylethyl]-1,4-dihydropyrimidin-4-one], 8.00 to 11.00. For `CCCCc1nc(=O)c(S(=O)(=O)c2ccc(-c3ccncc3C)cc2)c(O)n1[C@@H](C)c1ccccc1OC` [Example 228, 2-butyl-6-hydroxy-1-[(1S)-1-(2-methoxyphenyl)ethyl]-5-[4-(3-methylpyridin-4-yl)benzenesulfonyl]-1,4-dihydropyrimidin-4-one], the pEC50 is 8.00 to 11.00.

For the compound `COC[C@@H](c1ccccc1)n1c(COC(C)C)nc(=O)c(S(=O)(=O)c2ccc(-c3ccncc3C)cc2)c1O` [Example 329, 6-hydroxy-1-[(1R)-2-methoxy-1-phenylethyl]-5-[4-(3-methylpyridin-4-yl)benzenesulfonyl]-2-[(propan-2-yloxy)methyl]-1,4-dihydropyrimidin-4-one], the pEC50 is 8.00 to 11.00. Same read-out and setting: for `CCCCc1nc(=O)c(S(=O)(=O)c2ccc(-c3ccc(F)nc3C)cc2)c(O)n1[C@@H](CC)c1ccc2c(c1)OCO2` [Example 220, 1-[(1S)-1-(2H-1,3-benzodioxol-5-yl)propyl]-2-butyl-5-[4-(6-fluoro-2-methylpyridin-3-yl)benzenesulfonyl]-6-hydroxy-1,4-dihydropyrimidin-4-one] the value was 8.00 to 11.00; for `CCCCc1nc(O)c(S(=O)(=O)c2ccc(Br)cc2)c(=O)n1[C@@H](CC)c1ccc2c(c1)OCO2` [Example 219, 3-[(1S)-1-(2H-1,3-benzodioxol-5-yl)propyl]-5-(4-bromobenzenesulfonyl)-2-butyl-6-hydroxy-3,4-dihydropyrimidin-4-one], 8.00 to 11.00; for `CCCCc1nc(=O)c(S(=O)(=O)c2ccc(-c3cccnc3C)cc2)c(O)n1[C@@H](CC)c1ccc(C#N)cc1` [Example 266, 4-[(1S)-1-{2-butyl-6-hydroxy-5-[4-(2-methylpyridin-3-yl)benzenesulfonyl]-4-oxo-1,4-dihydropyrimidin-1-yl}propyl]benzonitrile], 8.00 to 11.00.

Still in this experiment, the particulars now being: human APJ, intracellular cAMP accumulation; read-out: Human APJ cAMP EC50 Potency range.
Consider `CCCCc1nc(=O)c(S(=O)(=O)c2ccc(-c3ccc(F)nc3)cc2)c(O)n1-c1c(OC)cccc1OC` [Example 15, 2-butyl-1-(2,6-dimethoxyphenyl)-5-[4-(6-fluoropyridin-3-yl)benzenesulfonyl]-6-hydroxy-1,4-dihydropyrimidin-4-one], for which the pEC50 was 8.00 to 11.00.

For `CCCCc1nc(=O)c(S(=O)(=O)c2ccc(-c3cnc(F)cc3C)cc2)c(O)n1[C@@H](COC)c1ccccc1` [Example 152, 2-butyl-5-[4-(6-fluoro-4-methylpyridin-3-yl)benzenesulfonyl]-6-hydroxy-1-[(1R)-2-methoxy-1-phenylethyl]-1,4-dihydropyrimidin-4-one], the pEC50 was 8.00 to 11.00. The same measure, in the same setting: the result for `CCCCc1nc(=O)c(S(=O)(=O)c2ccc(-c3cnn(C(C)C)c3)cc2)c(O)n1-c1c(OC)cccc1OC` [Example 10, 2-butyl-1-(2,6-dimethoxyphenyl)-6-hydroxy-5-{4-[1-(propan-2-yl)-1H-pyrazol-4-yl]benzenesulfonyl}-1,4-dihydropyrimidin-4-one] reads 8.00 to 11.00; that for `CCCCc1nc(=O)c(S(=O)(=O)c2ccc(-c3ccnc(F)c3C)cc2)c(O)n1C(C)c1cccnc1` (centres unmarked) [Example 203, 2-butyl-5-[4-(2-fluoro-3-methylpyridin-4-yl)benzenesulfonyl]-6-hydroxy-1-[1-(pyridin-3-yl)ethyl]-1,4-dihydropyrimidin-4-one], 8.00 to 11.00. As to `CCCCc1nc(=O)c(S(=O)(=O)c2ccc(-c3cnc(F)c(Cl)c3)cc2)c(O)n1-c1c(OC)cccc1OC` [Example 37, 2-butyl-5-[4-(5-chloro-6-fluoropyridin-3-yl)benzenesulfonyl]-1-(2,6-dimethoxyphenyl)-6-hydroxy-1,4-dihydropyrimidin-4-one], the pEC50 is 8.00 to 11.00. Same read-out and setting: for `CCCCc1nc(=O)c(S(=O)(=O)c2ccc(-c3ccc4c(ccn4C)c3)cc2)c(O)n1-c1c(OC)cccc1OC` [Example 53, 2-butyl-1-(2,6-dimethoxyphenyl)-6-hydroxy-5-[4-(1-methyl-1H-indol-5-yl)benzenesulfonyl]-1,4-dihydropyrimidin-4-one] the value was 8.00 to 11.00. Same read-out and setting: the result for `CCCCc1nc(=O)c(S(=O)(=O)c2ccc(-c3cncc(C)c3)cc2)c(O)n1[C@H]1CCc2ccccc21` [Example 160, 2-butyl-1-[(1S)-2,3-dihydro-1H-inden-1-yl]-6-hydroxy-5-[4-(5-methylpyridin-3-yl)benzenesulfonyl]-1,4-dihydropyrimidin-4-one] reads 6.52 to 7.00. Still for that read-out and setting: for `CCCCc1nc(=O)c(S(=O)(=O)c2ccc(Br)cc2)c(O)n1[C@@H](COC)c1ccccc1` [Example 119, 5-(4-bromobenzenesulfonyl)-2-butyl-6-hydroxy-1-[(1R)-2-methoxy-1-phenylethyl]-1,4-dihydropyrimidin-4-one] the value was 7.00 to 8.00.
